{
  "source": "patent US20090259167A1",
  "about": "“METHODS AND COMPOSITIONS FOR DOSE-DEPENDENT PHOTODYNAMIC THERAPY OF DISORDERS” (THE GENERAL HOSPITAL CORPORATION, priority 2008, published 2009)",
  "key": {"skin": {"system": "skin", "assay": "Clinical examination of inflammatory response to ALA-PDT (635 nm red light)", "format": "in vivo, Yorkshire swine", "excerpt": "(§1) Three female domestic Yorkshire swine weighing 30 to 50 kg were used in the study, which was approved by the MGH Institutional Subcommittee for Research Animal Care. Porcine and human skin have similar histology and physiology, with notable differences. Pigs have smaller sebaceous glands and a thicker dermis. However their thick stratum corneum, lack of fur and metabolism of topical or injected ALA are similar to humans (Meyer 1996), (de Blois, Thissen et al. 2001).\n(§2) 5-Aminolevulinic acid hydrochloride from Biosynth International Inc. (Naperville, Ill., USA) was diluted in normal saline (0.9% Sodium Chloride, Hospira, Inc., Illinois, USA) into different concentrations. ALA solutions were titrated in halves from 1.000% to 0.0005%. Osmolarity was not corrected. ALA solution pH varied with concentration from acidic to neutral (1.000%≈pH 1; 0.500%≈pH 3; 0.250 to 0.008%≈pH 5; 0.004 to 0.0005%≈pH 7). Normal saline was used as a control (pH=7). […] In this study, ALA solutions were not buffered because buffering can induce a delay in PpIX formation (Bech et al. 1997). Unbuffered solutions were prepared immediately before intradermal injection. A volume of 0.05-cc/cm^2 skin area was injected at a depth of 2 to 4 mm, using a special 4 mm-long 30 gauge needle (TSK STEiJECT, Toshigi-ken, Japan). The beveled outlet of this needle covers the distal 1 mm near its tip.\n(§3) Each animal's flanks were cleansed, clipped of hair, cleansed and rinsed again, dried with a towel, mapped and divided into 4 cm×7 cm rectangular areas for the test spots. Each test area received an injection of a given ALA concentration, with appropriate control sites, which received either no treatments, ALA alone, or light exposure alone. After the ALA injections, the skin surface was wiped clean again. Three hours after ALA administration, each test area was used for repeated measurements of (1) digital fluorescence photography to document the gross distribution of porphyrin synthesis; and (2) 8-mm skin biopsies obtained from at least 2 sites for each condition prior to light exposure, for evaluation of porphyrin distribution by fluorescence microscopy. After the 3-hour-incubation skin biopsies, red light exposures were performed using a 635 nm LED array (Omnilux, Photo Therapeutics, Inc, Cheshire, UK), delivered at 100 mW/cm^2 irradiance. Biopsies were taken from the control sites at the same times as from test sites, to control for the unlikely possibility that the small amount of ALA injected would cause a systemic level sufficient to stimulate remote synthesis of porphyrins. Measurements and biopsies were repeated after 24 hours, prior to euthanasia.\nClinical examination and grading of cutaneous responses were performed before, during and 1 hour after the end of the last red light exposure. This is sufficient time for an acute inflammatory response to develop. The following day, before euthanasia, final clinical evaluation was performed. Inflammatory response was graded from 0 to 3 for each site, where 0 represents no reaction; 1, mild (any redness or edema); 2, moderate (prominent redness and/or edema) and 3, severe reaction (signs of necrosis, blistering, purpura)."}, "[1]": {"assay": "pH and stability of ALA solutions", "format": "physicochemical", "conditions": "unbuffered", "experimental": "as §2"}, "[2]": {"system": "porphyrin accumulation in skin", "assay": "Digital fluorescence gross photography of porphyrin accumulation after intradermal ALA", "format": "in vivo, Yorkshire swine", "excerpt": "as §1, §2\nFor each concentration, 12 repetitions were performed for statistical validation. One centimeter separated each site of application from others at the same concentration. After ALA administration, the skin was occluded with plastic sheeting (Saran wrap) and covered with aluminum foil, to avoid light exposure during a 3-hour period for ALA metabolism.\nas §3\nFluorescence photography was performed using a 420 nm bandwidth excitation filter, and >600 nm long pass emission filter mounted on a digital camera (Nikon D70, Nikon Corporation, Tokyo, Japan) with fixed-focus and fixed-field with 10 cm field of view. A fluorescent tape (Small Flags—Pink, Redi-Tag Corporation, Cypress, Calif., USA) was attached to the fixed-field area to compare the fluorescence produced from the skin. Fluorescence photography was performed at baseline, after 3 hours of incubation, immediately after red light exposure, and 24 hours after the application of the drug for each ALA application and control test sites.\nEvery gross fluorescent photograph was analyzed using the WCIF—Image J 1.37c software—Wayne Rasband National Institutes of Health, USA. In this software, pixel analysis is transformed into numeric values. […]"}, "[3]": {"system": "porphyrin accumulation in cutaneous structures", "assay": "Fluorescence microscopy of fresh-frozen skin biopsies for porphyrin (PpIX) distribution", "format": "in vivo, Yorkshire swine", "excerpt": "as §1, §2, §3\n(§4) From each experimental skin area, a series 8 mm punch biopsies were taken and immediately split vertically in half with a razor blade. For each biopsy, half was prepared as a fresh-frozen specimen to localize the PpIX accumulation by fluorescence microscopy. The other half was processed for routine hematoxylin-eosin (H&E) staining. At baseline (B0), after 3 hours of incubation (B1), and after 24 hours (B2) a biopsy was performed in each area. Biopsies for fluorescence microscopy were also taken from sites receiving light exposure, just after the light was administered. Frozen sections were cut into 15 μm thick samples and observed using fluorescence microscopy Zeiss Axiophot, Carls Zeiss MicroImaging GmbH, Gottinger, Germany at 10× magnification; samples were also imaged by confocal microscopy (True Confocal Scanner—Leica TCSNT, Leica Mikroscopie und Systeme GmbH, Heidelberg, Germany) at 40× magnification. Routine H&E histology was performed to analyze PDT effect within the skin structures. Biopsy sites were separated from each other by at least 1 cm. […]"}, "skin structures": {"system": "skin structures", "assay": "Histopathology (H&E) of skin structures 24 hours after ALA-PDT", "format": "in vivo, Yorkshire swine", "excerpt": "as §1, §2, §3, §4"}, "[4]": {"conditions": "depending on the pH and the concentration of the solution; cited from earlier work"}, "[5]": {"conditions": "0.5% injected ALA-PDT, 24 hours"}},
  "note": "“Also recorded” adds a separate entry of the source.",
  "data": [
    {"smiles": "Cl.NCC(=O)CCC(=O)O", "note": "[ALA, 5-Aminolevulinic acid hydrochloride]", "values": [
      {"measurement": "lowest injected ALA concentration with clinical reaction (mild erythema)", "setting": "skin; 24 hours after PDT", "value": 0.016, "unit": "%"},
      {"measurement": "Nikolski sign", "setting": "skin; all sites", "value": "negative"},
      {"measurement": "clinical response after light exposure", "setting": "skin; injected ALA 0.0005% (lowest concentration)", "value": "no significant clinical residuum"},
      {"measurement": "clinical response after PDT", "setting": "skin; injected ALA 0.25%-1.00%, necrosis generally after 24 hours", "value": "extensive purpura with skin necrosis"},
      {"measurement": "gross skin reaction", "setting": "skin; injected ALA and light exposure, after 24 hours", "value": "much more uniform gross skin reaction"},
      {"measurement": "clinical response during red light irradiation", "setting": "skin; injected ALA from 0.016% to 1.0%", "value": "intense vasospasm"},
      {"measurement": "clinical response after light exposure", "setting": "skin; injected ALA less or equal to 0.016%, light 3 hours after injection", "value": "only erythematous macules near each injection puncture site"},
      {"measurement": "reaction to ALA injection before light exposure", "setting": "skin; intradermal injection, 3-hour incubation", "value": "mild transient “bleb” papule"},
      {"measurement": "skin response", "setting": "skin; topical 20% ALA and light exposure, after 24 hours", "value": "non-uniform skin response, with much greater inflammation around hair follicles"},
      {"measurement": "ALA solution pH", "setting": "[1]; 0.004 to 0.0005% ALA in normal saline", "value": "~7"},
      {"measurement": "ALA solution pH", "setting": "[1]; 0.250 to 0.008% ALA in normal saline", "value": "~5"},
      {"measurement": "ALA solution pH", "setting": "[1]; 0.500% ALA in normal saline", "value": "~3"},
      {"measurement": "ALA solution pH", "setting": "[1]; 1.000% ALA in normal saline", "value": "~1"},
      {"measurement": "porphyrin accumulation by gross fluorescence", "setting": "[2]; 2-4 mm deep injected ALA lower than 0.0005%", "value": "low but detectable level of porphyrin accumulation"},
      {"measurement": "lowest injected ALA concentration with positive fluorescence in photographs", "setting": "[2]; 3 hours after intradermal administration, solutions 1.0% to 0.0005%", "value": 0.004, "unit": "%"},
      {"measurement": "lowest injected ALA concentration with statistically significantly increased fluorescence vs uninjected control sites (pixel value analysis)", "setting": "[2]; 3 hours incubation", "value": 0.004, "unit": "%"},
      {"measurement": "fluorescence compared to control and light only sites", "setting": "[2]; ALA less than or equal to 0.002%, p≦2×10^−5", "value": "significant fluorescence"},
      {"measurement": "fluorescence immediately after red light PDT", "setting": "[2]; all sites, 635 nm", "value": "no fluorescence"},
      {"measurement": "porphyrin accumulation by gross fluorescence", "setting": "[2]; injected ALA greater than 0.002%", "value": "dose-dependent porphyrin accumulation"},
      {"measurement": "lowest injected ALA concentration inducing porphyrin accumulation", "setting": "[3]; down to and including", "value": 0.0005, "unit": "%"},
      {"measurement": "injected ALA concentration at which epithelial skin structures (hair follicles, sebaceous glands, epidermis) showed fluorescence", "setting": "[3]; in vivo", "value": "≥ 0.25", "unit": "%"},
      {"measurement": "subcutaneous fat fluorescence", "setting": "[3]; injected ALA 0.0005%", "value": "present"},
      {"measurement": "vessel fluorescence", "setting": "[3]; injected ALA 0.50%", "value": "Some vessels also fluoresced"},
      {"measurement": "epidermal fluorescence", "setting": "[3]; injected ALA 1.0% and 0.5%, prior to light", "value": "Full thickness epidermal fluorescence"},
      {"measurement": "fluorescence of superficial and deep hair follicles", "setting": "[3]; injected ALA 1% to 0.03%", "value": "mostly present"},
      {"measurement": "epidermal fluorescence", "setting": "[3]; injected ALA below 0.06%", "value": "negative"},
      {"measurement": "stratum corneum fluorescence", "setting": "[3]; injected ALA below 0.06%", "value": "positive fluorescence"},
      {"measurement": "localisation of porphyrin fluorescence", "setting": "[3]; injected ALA ≦0.002%, 2-4 mm deep", "value": "limited to the area where the drug was injected"},
      {"measurement": "eccrine gland porphyrin fluorescence", "setting": "[3]; injected ALA ≧0.03%", "value": "strong porphyrin fluorescence"},
      {"measurement": "superficial fat fluorescence", "setting": "[3]; injected ALA, all concentrations tested, fading with dilution", "value": "strong fluorescence"},
      {"measurement": "lowest ALA concentration with sebaceous gland fluorescence", "setting": "[3]; injected, prior to light", "value": 0.50, "unit": "%"},
      {"measurement": "lowest ALA concentration with positive eccrine gland fluorescence", "setting": "[3]; injected, less intense but still positive", "value": 0.005, "unit": "%"},
      {"measurement": "fat septae damage", "setting": "skin structures; 0.002% injected ALA-PDT", "value": "Massive fat septae necrosis"},
      {"measurement": "damage to hair follicle, adnexal glands and fat", "setting": "skin structures; 0.5% injected ALA-PDT", "value": "Non-selective destruction"},
      {"measurement": "epidermis changes", "setting": "skin structures; [5]", "value": "no relevant changes"},
      {"measurement": "superficial vessel findings", "setting": "skin structures; [5]", "value": "superficial vessel inflammation with blood stagnation"},
      {"measurement": "eccrine gland damage", "setting": "skin structures; all ALA concentrations, more so 1% to 0.06%", "value": "Massive eccrine gland necrosis"},
      {"measurement": "fat damage", "setting": "skin structures; all injected ALA concentrations", "value": "observed with all concentrations"},
      {"measurement": "epidermis reaction", "setting": "skin structures; all samples, 24 hours after PDT", "value": "little or no reaction"},
      {"measurement": "vascular destruction in deep vessels of the fat septae", "setting": "skin structures; injected ALA 0.0005% (most diluted)", "value": "maximal vascular destruction"},
      {"measurement": "fat damage intensity", "setting": "skin structures; injected ALA 0.0005-0.016%", "value": "more intense"},
      {"measurement": "fat effect at very low concentrations", "setting": "skin structures; injected ALA 0.016 to 0.0005% (≦0.016%), 2-4 mm deep, hydrochloride", "value": "localized fat necrosis without clinical evidence of inflammation; also recorded: targeted fat and deep vessels without clinical inflammation"},
      {"measurement": "superficial fat inflammation", "setting": "skin structures; injected ALA 0.06%", "value": "mild inflammation"},
      {"measurement": "eccrine gland selectivity of damage", "setting": "skin structures; injected ALA 0.06%, hydrochloride", "value": "selective destruction of some eccrine glands; also recorded: Selective eccrine gland damage; also recorded: selectively targeted eccrine glands; also recorded: Selective reaction of eccrine glands"},
      {"measurement": "vascular findings in superficial and deep vessels", "setting": "skin structures; injected ALA 0.25-1.00%, 24 hours after PDT", "value": "extensive perivascular and vascular mixed inflammatory cell infiltrates"},
      {"measurement": "vascular PDT reaction", "setting": "skin structures; injected ALA ≧0.25% with high fluence red light", "value": "potent vascular PDT reaction"},
      {"measurement": "apocrine gland damage", "setting": "skin structures; injected ALA-PDT", "value": "signs of some preferential damage"},
      {"measurement": "perifollicular inflammation", "setting": "skin structures; mainly injected ALA 1%-0.016%", "value": "mild perifollicular inflammation"},
      {"measurement": "stability of aqueous solutions", "setting": "[4]", "value": "unstable over long periods"}
    ]}
  ]
}
